Reference: patent US20210393667A1, “TARGET FOR ANTI-CANCER THERAPY” (Phoremost Limited, priority 2018, published 2021)
Like-named read-outs stand apart in the source and are kept apart here.

Experiments:
[1] = test system: CA18-NanoLuc frameshift reporter in HEK293FT cells; assay: Frameshift reporter (FSR) CA(18)-NanoLuc assay, small molecule treatment; type: cell-based; conditions: for increase in FSR signal: 72 hours, vs untreated FSR luminescence; for FSR activity (in words): dose range
Description: In order to read out mismatch repair (MMR) and hypermutability in mammalian cells, a Frameshift reporter (FSR) assay was used. The assay specifically focuses on frameshifts because, of all mismatch mutations, these are the ones that most abundantly generate neoantigens (see, for example, Turajlic et al. Lancet Oncol. 2017 (18; 1009-21). The assay based on the activity of the NanoLuciferase (NanoLuc®, Promega) reporter enzyme was developed (the “CA(n)-NanoLuc assay”). Copies of the CA dinucleotide repeat (referred to as “CA(n)”) were cloned upstream of the NanoLuc coding sequence. Typically 18 copies of the CA dinucleotide repeat (CA(18)) were used. Alternatively, the assay used 20 copies (CA(20)). This CA(n) tract renders the NanoLuc coding sequence out of frame, and therefore there is no reporter enzyme expression and no activity. The CA(n) tract is, however, a sequence which is subject to frequent DNA replication errors, and is therefore reliant on the MMR pathway to repair any post-replicative DNA mismatches. In a MMR-competent cell, any errors are efficiently repaired, the NanoLuc coding sequence remains out of frame and thus reporter activity is low. If, however, MMR is inhibited either by a small molecule or by genetic loss of any of the MMR machinery, post-replicative errors may remain unrepaired, frameshift mutations may occur, and therefore some cells in a population will now express a functional NanoLuc protein.
MMR inhibition can therefore be reported as an increase in NanoLuc® activity when a plasmid containing a CA repeat, such as the CA(18) NanoLuc construct, is transfected into cells. Since NanoLuc® is a highly processive enzyme with a large and linear dynamic range, it was predicted that only a small number of MMR errors would be required to generate a positive signal, making for a sensitive assay with a large signal to noise ratio.
In addition, it has been shown that inhibition of RNR causes altered pools of dNTP resulting in increased mutation rates. Relatively modest dNTP pool deviations induce exceptionally strong mutator phenotypes which cause saturation of the DNA mismatch repair system and lead to detection in the FSR assay system.
HEK293FT cells seeded at 600,000 cells per well in a 6 well plate and incubated overnight. Media was replaced and incubated a further 2 hours before transient transfection of pcDNA3.1 Hygro CA18Nluc (0.5 μg). After 4 hours media was replaced and incubated overnight. Media was aspirated, cells washed with PBS and trypsinised. Cells were pelleted by centrifugation (1000×g, 5 mins), washed in PBS, centrifuged again and resuspended in fresh media to […].
(§1) A 96 well plate was seeded with 100 μl of transfected cells and incubated overnight. A 2× solution of clofarabine was made to 100 μM in DMEM and 9× two-fold dilutions were made in growth media. A parallel dilution series was made with equal concentrations of DMSO as a control. 100 μL of clofarabine or DMSO solution was added to wells of 96 well plates (6 replicates per concentration). PBS was added to outer wells of 96 well plates and incubated for 48 hours. To 3 wells per concentration a 1:1 ratio of CellTiter Glo (Promega) was added. To remaining wells, an equal volume of NanoGlo (Promega) reagent was added. 100 μL was aliquoted from each well to a 96 well, white walled, white bottomed plate and luminescence read. Percentage viability was calculated for all conditions in comparison to an untreated control and nanoluciferase reading were normalised to viability.
For triapine treatment, cells were initially seeded into 6 well plates and transfected with the pcDNA3.1 Hygro CA18Nluc construct, as in the detailed method for clofarabine treatment. After transfection, cells were trypsinised and seeded into white-walled 384 well plates at a density of 2000 cells per well in a final volume of 30 uL. After 24 hours, cells were treated with compounds or a DMSO solvent control in a final volume of 3.3 uL. […]

[2] = CellTitre Glo viability assay; type: cell-based; conditions: human
Procedure: as §1
(§2) For triapine treatment, cells were initially seeded into 6 well plates and transfected with the pcDNA3.1 Hygro CA18Nluc construct, as in the detailed method for clofarabine treatment. After transfection, cells were trypsinised and seeded into white-walled 384 well plates at a density of 2000 cells per well in a final volume of 30 uL. After 24 hours, cells were treated with compounds or a DMSO solvent control in a final volume of 3.3 uL. Compound stock was diluted to achieve a final concentration of 10 uM, and compounds were serially diluted in DMSO by three-fold to generate the dose-response curve. Compound was subsequently diluted in media, and then added to cells in 3.3 uL, ensuring a final concentration of DMSO no greater than 0.5%. PBS was added to outer wells of the 384 well plates and incubated for 72 hours. To 3 wells per concentration, 5 uL of CellTiter Glo (Promega) was added. To remaining wells, 30 uL of NanoGlo (Promega) reagent was added and incubated at room temperature for 30 minutes. Luminescence was read. Percentage viability was calculated for all conditions in comparison to an untreated control and nanoluciferase reading were normalised to viability.

[3] = test system: HEK293FT cells; assay: GI50, standard dosimetric assay testing for cell growth; type: cell-based
[4] = test system: CT26 cells; assay: Whole exome sequencing of CT26 cells after 100 days of clofarabine; type: cell-based, mouse; conditions: 100 nM, relative to matched vehicle only control
Procedure: CT26 cells, cultured in RPM11640 were dosed with 100 nM clofarabine or with DMSO only. Cells were passaged and re-dosed every 72 hours. Cells were harvested at 100 days, and single-cell colonies (SSCs) derived for each sample. After expansion over 8-10 days, genomic DNA was extracted from SSC pellets and whole exome sequencing (WES) performed following methods such as those described, for example, in WO2017/182783, see page 33, line 21 onwards and page 34, lines 1 to 5.
Somatic single nucleotide variants (SNVs), multiple-nucleotide polymorphisms (MNPs), and insertion-deletion (InDel) mutations were identified using the GATK4 Toolkit and GATK's Mutect2 (version 4.1.4.0) to analyse the WES data. Prior to mapping the read sequences to the reference genome (mm10), read data quality and adapter trimming and QC was performed using TrimGalore and a Q-score cut-off of 30. Reads were aligned to mm10 using BWA mem (version 0.7.17-r1188). Duplicate reads were marked using MarkDuplicates (Picard, GATK4 copy). Variant discovery using Mutect2 was performed using a custom generated interval list and Panel of Normals (PON) resource. The interval list was derived for a BED file of canonical transcript exon positional information for mm10, which was generated using the UCSC TableBrowser. The PON was derived for matched CT26 WES data using Mutect2, GenomicsDBImport, and CreateSomaticPanelOfNormals. Variant filtering was performed using FilterMutectCalls (GATK4). Variants detailed in the VCF files generated using FilterMutectCalls were further filtered using a shell script in order to keep only variants meeting the quality control thresholds applied by FilterMutectCalls and exclude variants identified for reads mapping to unlocalized and unplaced contigs. The functional effects of the identified variants (on genes, transcripts, protein sequences, and regulatory regions) were predicted using the Ensembl Variant Effect Predictor (VEP).

[5] = test system: CT26 cells; assay: T cell killing assay with clofarabine-treated CT26 cells; type: cell-based, mouse; conditions: CT26 cells treated with 100 nM for 100 days; stimulated and unstimulated, C57BL/6- and Balb/c-derived CD8 T cells, 10:1, 72 h
Procedure: T-cell extraction: Spleen from C56BL/6 and Balb/c mice was homogenised aseptically using a cell strainer and syringe plunger. RBC was lysed using lysis buffer and remaining cells washed and counted. Dynabeads untouched mouse CD8 cell kit (Thermofisher: 11417D) used to isolate CD8 cells using negative selection. Half these cells were cultured as unstimulated for assay controls but the majority was cultured with Dynabeads Mouse T-activator CD3/CD28 beads for 24 h prior to assay. T-cell assay: CT26 tumour cell lines (parental as control) was plated at 3,000 cells per well into a 96 well plate; effector cells at a ratio of 10:1 was added along with appropriate stains and imaged on the EVOS microscope over a period of 72 h.

[6] = recommended dose for adult acute leukemia, 40 mg/m2/day×5 days; cited from earlier work
[7] = test system: HEK293FT cells; assay: CellTitre Glo viability assay; type: cell-based; conditions: HEK293FT cells, 3.33 uM, 72 hours
Procedure: as §1, §2

Nc1nc(Cl)nc2c1ncn2[C@@H]1O[C@H](CO)[C@@H](O)[C@@H]1F [clofarabine, (2R,3R,4S,5R)-5-(6-amino-2-chloropurin-9-yl)-4-fluoro-2-(hydroxymethyl)oxolan-3-ol]
increase in FSR signal ([1]; 50 nM): 40%
FSR activity (in words) [1]: dose-dependent increase in FSR activity
viability at 72 h, 0.05 µM [2]: 92%
GI50 [3]: 430 nM
overall burden of mutations (largely SNV) [4]: does not increase substantially
proportion of frame-shift causing InDel mutations [4]: elevated
total count of frame-shift causing InDel mutations [4]: elevated
T cell killing [5]: significantly increase T cell killing
plasma levels [6]: around 1 μM

Nc1ccn([C@@H]2O[C@H](CO)[C@@H](O)C2(F)F)c(=O)n1 [gemcitabine]
increase in FSR signal ([1]; 370 nM): 300%
FSR activity (in words) [1]: causes an increase in FSR activity
cytotoxicity at 72 h, 370 nM [2]: 50%
GI50 [3]: 440 nM

Nc1nc(Cl)nc2c1ncn2[C@H]1C[C@H](O)[C@@H](CO)O1 [cladribine, Cladribine]
increase in FSR signal ([1]; 3.33 uM): 226%
reduction in viability [7]: no reduction in viability

NC(=S)N/N=C/c1ncccc1N [triapine]
increase in FSR signal ([1]; 370 nM): 400%
cytotoxicity at 72 h, 370 nM ([2]; HEK293FT cells, 370 nM, 72 hours, vs DMSO control, read-out: reduction in viability): 23%
GI50 [3]: 600 nM
